Source: patent US12448393B2, “Use of novel compound, for preventing, improving or treating amyotrophic lateral sclerosis” (PRG S&TECH INC., priority 2019, dated 2025)
Like-named read-outs stand apart in the source and are kept apart here.

Assays:
[1] = tested on: WT-SOD1; assay: WT-SOD1 aggregation by cellular stress; type: cell-based
[2] = tested on: SOD1; assay: Western blot / native gel analysis of SOD1 aggregation; type: cell-based, human; details: Table 1; effect on SOD1 aggregation, native / non-SDS-PAGE gel
Description: Using RIPA buffer (50 mM Tris-Cl, pH 7.5, 150 mM NaCl, 1% NP-40, 0.1% SDS and […]) for SDS-PAGE and lysis buffer (50 mM Tris-Cl, pH 7.5, 150 mM NaCl, 0.3% NP-40) for Native-PAGE, proteins were extracted from cells. Samples were separated by the SDS-PAGE or the Native-PAGE and transferred to PVDF membrane. Blotted membrane was blocked with TBST buffer including 3% skim milk for 1 hour, and reacted with specific antibodies. The reacted antibodies were detected by ECL and X-ray film exposure. Antibodies used in the present disclosure are as follows: pan-SOD1 (GTX100554) was purchased from Genetex (California, USA). Misfolded SOD1-specific antibody (B8H10) was purchased from MediMabs (Montreal, Canada). Actin (sc-1616), GST (sc-138), and GFP (Green fluorescent protein; sc-8036) were purchased from Santa Cruz biotechnology (Santa Cruz, CA, USA). TDP-43 antibody (10782-2-AP) was purchased from Proteintech (Rosemont, IL, USA). Anti-FLAG (Sigma; F3165) was purchased from Sigma Aldrich (St, Louis, Mo, USA), and HRP-conjugated goat anti-mouse, goat anti-rabbit, and mouse anti-goat antibodies (Pierce, Thermo Fisher Scientific, Inc., Rockford, IL, USA) were used as secondary antibodies.
(§1) GFP-SOD1 (WT, G85R, G93A), non-tagged SOD1 (WT, A4V, G37R, G85R, G93A) and tdTomato-TDP43 expression vectors were purchased from Addgene (Cambridge, MA, USA). Transfection was performed using Jet-PEI reagent (JetPEI; Polyplus transfection, New York, NY, USA) according to the manufacturer's protocol. Briefly, vectors were mixed with JetPEI reagent in 150 mM NaCl buffer, and then mixture was reacted for 15 minutes. The mixture was added to cells in serum-free medium and reacted for 4 hours. After reaction, the cells were replaced with a culture medium supplemented with 10% FBS.

[3] = tested on: normal human fibroblasts; assay: Cell viability measurement (MTT), normal fibroblasts; type: cell-based; details: Table 1; cell type not given, neurons (FIG. 9A) and normal fibroblasts (FIG. 9B)
Description: HEK293 cells were purchased from American Type Culture Collection (ATCC, Manassas, VA, USA) and maintained at 37° C. and 5% CO2 in DMEM liquid medium including 10% fetal bovine serum and 1% penicillin-streptomycin. SK—N—SH cells were purchased from Korean Cell Line Bank (KCLB, Seoul, South Korea) and maintained in MEM medium including 10% fetal bovine serum, 1% antibiotic, 25 mM HEPES, and 300 mg/L L-Glu. Human fibroblasts (person) were purchased from Coriell Cell Repositories (New Jersey, USA) and maintained in EMEM including 15% FBS, 2 mM Glutamine, and 26 mM HEPES without antibiotics. Thapsigargin (ER calcium scavenger: CAS 67526-95-8) was purchased from Calbiochem (Darmstadt, Germany). CoCl2 (hypoxia-inducer: C8661) was purchased from Sigma Aldrich (St, Louis, Mo, USA).
To check cells viability, the cells were reacted with 0.5 mg/ml MTT solution (475989; Merck, Darmstadt, Germany) at 37° C. for 4 hours. After removing residual solution and washing with PBS, precipitate was dissolved in 200 μl DMSO, and quantified by measuring absorbance at 540 nm.

[4] = tested on: SOD1; assay: Immunofluorescence staining of SOD1 aggregation and misfolded SOD1; type: cell-based, human; details: Table 1; IF staining of SOD1
Description: Cells on coverslip were washed with PBS, fixed with 4% PFA at room temperature for 30 minutes, and then infiltrated with 0.1% Triton X-100/PBS for 10 minutes. The cells were treated with blocking solution (anti-Human Antibody 1:500 dilution in PBS) for 1 hour, and then cells were reacted with anti-pan SOD1 (1:400 dilution), misfolded SOD1 (B8H10; 1:200 dilution in blocking solution) at 4° C. overnight. Finally, the cells were reacted with FITC and rhodamine-conjugated secondary antibody at 4° C. for 6 hours. Nuclei were stained with 4,6-diamidino-2-phenylindole (DAPI), and endoplasmic reticula (ERs) were stained with ER-Tracker Red dye for 10 minutes. The cells were washed 3 times with PBS, and then coverslips were mounted with mounting solution [H-5501; Vector Laboratories (Burlingame, CA, USA)] and analyzed by fluorescence microscopy (Zeiss).
as §1

[5] = tested on: WT-SOD1 and mutant SOD1-GST (A4V, G37R, G85R, G93A); assay: ELISA compound screening for binding inhibitor between WT-SOD1 and mutant SOD1; set-up: species or system human; details: Table 1; compounds at final concentration of 50 μM
Description: For compound screening, the present inventors applied an ELISA assay system. To select a binding inhibitor between WT-SOD1 and mutant SOD1, the present inventors used 0.5% paraformaldehyde (PFA) to fix WT-SOD1 recombinant protein on a 96-well plate. The plate was dried, washed with phosphate-buffered saline (PBS), and reacted with the compounds at a final concentration of 50 μM, and then mutant SOD1-GST (A4V, G37R, G85R, G93A) proteins were added. After 2 hours of reaction, the 96-well plate was washed with PBS and blocked with 3% skim milk to prevent non specific reaction. The plate was reacted with anti-GST antibody (diluted at 1:10,000) for 1 hour, and then reacted with anti-mouse IgG-HRP (diluted at 1:50,000) for 1 hour. After washing twice, the plate was reacted with a 3,3′,5,5′-tetramethylbenzidine (TMB) solution (Calbiochem) for 30 minutes and a stop solution (1N H2SO4) for 30 minutes. Finally, the present inventors analyzed values using an ELISA reader (450 nm absorbance). Negative control (−; red line) was reacted without mutant SOD1, and positive control (+; blue line) was reacted with mutant SOD1 without the compounds.
To prepare recombinant proteins, human SOD1 (WT, A4V, G37R, G85R, G93A) was added to EcoRI and HindIII sites of pGEX-TEV vector, an improved vector made by adding a TEV protease cleavage site to pGEX-4T1 (Invitrogen). The recombinant proteins were expressed as GST-fusion proteins in Escherichia coli (E. coli) strain BL21 (DE3). The proteins were purified by glutathione-affinity chromatography.

C/C=C(/C)C(=O)O[C@H]1C(C)=C2[C@H]([C@@H]1OC(=O)CCCCCCC)[C@@](C)(OC(C)=O)C[C@H](OC(=O)CCC)[C@@]1(O)[C@H]2OC(=O)[C@@]1(C)O [Thapsigargin]
SOD1 aggregation under cellular stress agents ([1]; FIG. 1C, 1D, FIG. 2): promoted the WT-SOD1 aggregation

c1ccc(CN(CCN(Cc2ccccn2)Cc2ccccn2)Cc2ccccn2)nc1 [TPEN]
SOD1 aggregation under cellular stress agents ([1]; FIG. 1C, 1D, FIG. 2): induced the WT-SOD1 aggregation

CC1(C)Oc2cc3oc(=O)ccc3cc2C[C@@H]1OC/C=C/c1ccc(F)cc1 [SNU-C13, (S,E)-7-((3-(4-fluorophenyl)allyl)oxy)-8,8-dimethyl-7,8-dihydro-2H,6H-pyrano[3,2-g]chromen-2-one]
Western Blot [2]: Effect x

CC1(C)Oc2cc3oc(=O)ccc3cc2C[C@@H]1OC(=O)/C=C/c1cccc(O)c1 [SNU-C10, (S)-8,8-dimethyl-2-oxo-7,8-dihydro-2H,6H-pyrano[3,2-g]chromen-7-yl (E)-3-(3-hydroxyphenyl) acrylate]
Toxicity (MTT) [3]: No
Immuno-fluorscence [4]: Effect ○
ELISA [5]: Effect ○
Western Blot [2]: Effect ○

COc1ccc(CCC(=O)O[C@H]2Cc3cc4ccc(=O)oc4cc3OC2(C)C)cc1OC [SNU-C7, (S)-8,8-dimethyl-2-oxo-7,8-dihydro-2H,6H-pyrano[3,2-g]chromen-7-yl 3-(3,4-dimethoxyphenyl) propanoate]
Toxicity (MTT) [3]: No
Immuno-fluorscence [4]: Effect x
ELISA [5]: Effect x
Western Blot [2]: Effect x

CC(=O)Oc1cccc(/C=C/C(=O)O[C@H]2Cc3cc4ccc(=O)oc4cc3OC2(C)C)c1 [SNU-C14, (S)-8,8-dimethyl-2-oxo-7,8-dihydro-2H,6H-pyrano[3,2-g]chromen-7-yl (E)-3-(3-acetoxyphenyl) acrylate]
Toxicity (MTT) [3]: No
Immuno-fluorscence [4]: Effect ○
ELISA [5]: Effect ○
Western Blot [2]: Effect ○

CC1(C)Oc2cc3oc(=O)ccc3cc2C[C@@H]1OC(=O)/C=C/c1ccc(F)c(F)c1 [SNU-C18, (S)-8,8-dimethyl-2-oxo-7,8-dihydro-2H,6H-pyrano[3,2-g]chromen-7-yl (E)-3-(3,4-difluorophenyl) acrylate]
Toxicity (MTT) [3]: Toxic
Immuno-fluorscence [4]: Effect ○
Western Blot [2]: Effect ○

COc1cc(CCC(=O)O[C@H]2Cc3cc4ccc(=O)oc4cc3OC2(C)C)ccc1O [SNU-C4, (S)-8,8-dimethyl-2-oxo-7,8-dihydro-2H,6H-pyrano[3,2-g]chromen-7-yl 3-(4-hydroxy-3-methoxyphenyl) propanoate]
Toxicity (MTT) [3]: No
Immuno-fluorscence [4]: Effect x
ELISA [5]: Effect x
Western Blot [2]: Effect x

CC1(C)Oc2cc3oc(=O)ccc3cc2C[C@@H]1OC(=O)/C=C/c1ccncc1 [SNU-C9, (S)-8,8-dimethyl-2-oxo-7,8-dihydro-2H,6H-pyrano[3,2-g]chromen-7-yl (E)-3-(pyridin-4-yl) acrylate]
Toxicity (MTT) [3]: No
Immuno-fluorscence [4]: Effect ○
ELISA [5]: Effect x
Western Blot [2]: Effect ○

COc1cc(/C=C/C(=O)O[C@H]2Cc3cc4ccc(=O)oc4cc3OC2(C)C)ccc1OC(C)=O [SNU-C17, (S)-8,8-dimethyl-2-oxo-7,8-dihydro-2H,6H-pyrano[3,2-g]chromen-7-yl (E)-3-(4-acetoxy-3-methoxyphenyl) acrylate]
Immuno-fluorscence [4]: Effect ○
Western Blot [2]: Effect ○

[Cl-].[Cl-].[Co+2] [CoCl2]
SOD1 aggregation under cellular stress agents [1]: SOD1 aggregation and increase of misfolded SOD1

COc1ccc(/C=C/C(=O)O[C@H]2Cc3cc4ccc(=O)oc4cc3OC2(C)C)cc1OC [SNU-C5, (S)-8,8-dimethyl-2-oxo-7,8-dihydro-2H,6H-pyrano[3,2-g]chromen-7-yl (E)-3-(3,4-dimethoxyphenyl) acrylate]
Toxicity (MTT) [3]: No
Immuno-fluorscence [4]: Effect x
ELISA [5]: Effect ○
Western Blot [2]: Effect x

COc1cc(CCC(=O)O[C@H]2Cc3cc4ccc(=O)oc4cc3OC2(C)C)ccc1OC(C)=O [SNU-C15, (S)-8,8-dimethyl-2-oxo-7,8-dihydro-2H,6H-pyrano[3,2-g]chromen-7-yl 3-(4-acetoxy-3-methoxyphenyl) propanoate]
Toxicity (MTT) [3]: No
Immuno-fluorscence [4]: Effect ○
ELISA [5]: Effect x
Western Blot [2]: Effect ○

C[N+](C)(C)CCO.C[N+](C)(C)CCO.[SH-].[SH-].[S]=[Mo]=[S] [ATN-224]
SOD1 aggregation under cellular stress agents ([1]; FIG. 1C, 1D, FIG. 2): induced the WT-SOD1 aggregation
